Experimental data taken from patent US20060074243A1, “Hydroxamic acid and amide compounds and their use as protease inhibitors” (Pharmacia Corporation, priority 2002, published 2006).

Legend:
Human recombinant MMP-1 = biological target: T1, Human recombinant MMP-1 (Homo sapiens, UniProt P03956); assay: In vitro MMP inhibition analysis (fluorogenic peptide substrate cleavage), Ki; format: biochemical; conditions: Table 2
T1 construct: made in house; host or cells: MMP-1-transfected HT-1080 cells (spent media)
T1 sequence (P03956 100-469): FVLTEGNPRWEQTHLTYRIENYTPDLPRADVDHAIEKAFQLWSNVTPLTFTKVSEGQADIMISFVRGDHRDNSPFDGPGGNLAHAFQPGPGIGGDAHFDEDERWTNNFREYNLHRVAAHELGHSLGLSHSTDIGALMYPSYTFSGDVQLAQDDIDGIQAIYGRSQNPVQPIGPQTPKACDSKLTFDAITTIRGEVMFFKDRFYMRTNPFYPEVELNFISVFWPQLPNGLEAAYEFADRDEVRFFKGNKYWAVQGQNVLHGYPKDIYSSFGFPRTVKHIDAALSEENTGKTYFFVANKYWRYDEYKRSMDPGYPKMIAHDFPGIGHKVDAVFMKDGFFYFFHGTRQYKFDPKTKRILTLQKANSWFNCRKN
Protocol: (§1) Several compounds and salts were analyzed in an in vitro assay to determine their ability to inhibit the MMP cleavage of peptide substrates. Inhibition constant (Ki) were calculated from the assayed compound-MMP interactions.
(§2) Human recombinant MMP-1, MMP-2, MMP-9, MMP-13, and MMP-14 were used in this assay. All enzymes were prepared in Assignee's laboratories following usual laboratory procedures. Protocols for the preparation and use of these enzymes are available in the scientific literature. See, e.g., Enzyme Nomenclature (Academic Press, San Diego, Calif., 1992) (and the citations therein). See also, Frije et al., J. Biol. Chem., 26(24), 16766-73 (1994).
The MMP-1 proenzyme was purified from the spent media of MMP-1-transfected HT-1080 cells provided by Dr. Harold Welgus of Washington University (St. Louis, Mo.). The protein was purified on a zinc chelating column.
(§3) All MMPs were activated using 4-aminophenylmercuric acetate (“APMA”, Sigma Chemical, St. Louis, Mo.) or trypsin. MMP-9 also was activated using human recombinant MMP-3 (purified in Assignee's laboratory following standard cloning and purification techniques).
(§4) The following fluorogenic, methoxycoumarin-containing polypeptide substrate (I) was used in the MMP inhibition assays: MCA-ArgProLeuGlyLeuDpaAlaArgGluArgNH2 (I) “MCA” is 7-methoxycoumarin-4-yl acetyl. Substrate (I) was prepared Assignee's laboratory. In the absence of MMP inhibitory activity, the substrate is cleaved at the Gly-Leu peptide bond. This cleavage separates the highly fluorogenic peptide from the 2,4-dinitrophenyl quencher, thus resulting in increase of fluorescent intensity.
(§5) The stock solutions of the assayed compounds and salts were prepared in […] (DMSO). These stock solutions were diluted in Buffer A (100 mM Tris-HCl, 100 mM NaCl, 10 mM CaCl2, 0.05% polyoxyethylene 23 lauryl ether, pH 7.5) to obtain solutions with different compound concentrations, i.e., assay solutions with different concentrations of the assayed […] compound. The experiment controls contained the same amount of Buffer A/DMSO as the assayed sample, but contained none of the tested compound or salt.
(§6) The assays from which the Ki determinations were made were performed as follows. The assayed compound samples were incubated in separate wells of untreated white polystyrene plates (Nunc Nalgene International, Rochester, N.Y.), and analyzed on a Tecan SpectraFlour Plus plate reader. The excitation wavelength was 330 nm, and the emission wavelength—420 nm. All samples (assayed compounds and controls) were incubated in separate plate wells at room temperature for 1 hr in the presence of 4 μM of MMP substrate (I). In the absence of MMP inhibitory activity, substrate (I) was cleaved at the Gly-Leu bond resulting in an increase of relative fluorescence. Inhibition was observed as a reduced rate of this increase in relative fluorescence. […] This protocol is a modification of method by Knight et al., FEBS Lett., 296(3), 263-266 (1992). Apparent inhibitory constants were determined by non-linear regression of reaction velocity as a function of inhibitor and enzyme concentration using Morrison's equation, as described by Kuzmic, Anal. Biochem. 286, 45-50 (2000). Modifications were made in the non-linear regression method to allow a common control reaction rate and effective enzyme concentration to be shared between all dose-response relationships on a given assay plate. Since the substrate concentration was chosen to be at or below the Km, the apparent Ki's from this analysis were reported as Ki's without correction for the influence of substrate.
(§7) The above protocols were used to determine Ki constants for the compounds in Examples 2-35 above. All Ki values in Table 1 are given in nM units.

Human recombinant MMP-2 = biological target: T2, Human recombinant MMP-2 (Homo sapiens, UniProt P08253); assay: as above; format: biochemical; conditions: Table 2
T2 construct: made in house; host or cells: MMP-2-transfected p2AHT2 cells
T2 sequence (P08253 110-660): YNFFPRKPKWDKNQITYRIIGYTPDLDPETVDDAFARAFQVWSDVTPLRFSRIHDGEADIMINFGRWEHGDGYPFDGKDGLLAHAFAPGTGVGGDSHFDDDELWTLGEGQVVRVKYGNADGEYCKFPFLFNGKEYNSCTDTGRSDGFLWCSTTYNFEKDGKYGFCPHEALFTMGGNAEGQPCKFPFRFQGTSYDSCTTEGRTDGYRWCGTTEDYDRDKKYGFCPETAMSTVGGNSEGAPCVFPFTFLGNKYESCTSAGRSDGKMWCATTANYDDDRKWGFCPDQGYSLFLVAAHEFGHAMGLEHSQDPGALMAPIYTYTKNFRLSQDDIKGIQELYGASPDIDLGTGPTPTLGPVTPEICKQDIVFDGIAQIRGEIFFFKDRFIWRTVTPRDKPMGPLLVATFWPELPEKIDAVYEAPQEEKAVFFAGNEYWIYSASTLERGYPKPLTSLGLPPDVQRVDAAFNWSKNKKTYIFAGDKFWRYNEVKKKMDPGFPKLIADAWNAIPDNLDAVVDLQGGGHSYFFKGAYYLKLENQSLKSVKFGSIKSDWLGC
Protocol: as §1, §2
The MMP-2 proenzyme was purified by gelatin Sepharose chromatography from MMP-2-transfected p2AHT2 cells provided by Dr. Gregory Goldberg of Washington University (St. Louis, Mo.).
as §3, §4, §5, §6, §7

Row | SMILES | Ki (Human recombinant MMP-1) [nM] | Ki (Human recombinant MMP-2) [nM]
1 | O=C(NO)C1(S(=O)(=O)c2ccc(-c3ccc(CCC(F)(F)F)cc3)cc2)CCOCC1 [Example 161] | 3350 | 0.15
2 | O=C(NO)C1(S(=O)(=O)c2ccc(-c3cnc(C4CCCC4)cn3)cc2)CCOCC1 [Example 162] | > 10000 | 3.11
3 | CCOc1ccc(-c2ccc(S(=O)(=O)C3(C(=O)NO)CCOCC3)cc2)cc1 [Example 163] | 327 | 0.02
4 | COCC#Cc1cnc(-c2ccc(S(=O)(=O)C3(C(=O)NO)CCOCC3)cc2)cn1 [Example 164] | 2490 | 0.6
